Test results from patent US20060069132A1, “Azolecarboxamide herbicides” (priority 2004, published 2006).

How the values were obtained:
velvetleaf = assay: Test B pre-/postemergence herbicide test; type: in vivo, Abutilon theophrasti
Outline: (§1)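 Greenhouse pot assay with simultaneous preemergence (treated seed) and postemergence (2–18 cm seedlings) applications of surfactant-containing, non-phytotoxic solvent formulations. Response scored visually 13–15 days later on a 0–100 scale, 100 meaning complete control.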

barnyardgrass [1] = assay: Test B flooded paddy test; type: in vivo, Echinochloa crus-galli; details: 1000 g ai/ha, scale 0 to 100 (0 no effect, 100 complete control)
Outline: (§2)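 Read-out: visual comparison with controls, scored 0 to 100, where 100 means complete control and 0 no effect. Formulated chemicals were applied postemergence to plants 2–18 cm tall (1- to 4-leaf), or to flooded-paddy plants at the 2-leaf stage, then held 13 to 15 days under glass.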

corn = assay: Test B pre-/postemergence herbicide test; type: in vivo, Zea mays
Outline: as §1

barnyardgrass [2] = assay: Test B pre-/postemergence herbicide test; type: in vivo, Echinochloa crus-galli
Outline: (§3)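 Pre: seeds sown, then sprayed. Post: 1–4-leaf plants (2–18 cm) sprayed at the same time. Paddy: flooded, treated at 2-leaf stage. Formulation: non-phytotoxic solvent with surfactant. Greenhouse 13–15 days; visual 0–100 score relative to controls.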

[3] = test system: small flower umbrella sedge; assay: Test B flooded paddy test; type: in vivo, Cyperus difformis; details: 1000 g ai/ha, scale 0 to 100 (0 no effect, 100 complete control)
Outline: as §2

giant foxtail = assay: Test B pre-/postemergence herbicide test; type: in vivo, Setaria faberi
Outline: as §1

cocklebur = assay: Test B pre-/postemergence herbicide test; type: in vivo, Xanthium strumarium
Outline: as §3

large crabgrass = assay: Test B pre-/postemergence herbicide test; type: in vivo, Digitaria sanguinalis
Outline: as §1

ducksalad = assay: Test B flooded paddy test; type: in vivo, Heteranthera limosa; details: 1000 g ai/ha, scale 0 to 100 (0 no effect, 100 complete control)
Outline: as §2

lambsquarters = assay: Test B pre-/postemergence herbicide test; type: in vivo, Chenopodium album
Outline: as §1

rice [4] = assay: Test B pre-/postemergence herbicide test; type: in vivo, Oryza sativa; details: preemergence
Outline: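 Species tested were Echinochloa crus-galli, Ipomoea coccinea, Xanthium strumarium and Oryza sativa, treated both before emergence and at the 1- to 4-leaf stage; rice and barnyardgrass were also tested under flooding at 2 leaves. Greenhouse incubation lasted 13–15 days before visual 0–100 scoring.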

wheat = assay: Test B postemergence herbicide test; type: in vivo, Triticum aestivum; set-up: key to Wheat plant response rating: 0 = no effect, 100 = complete control
Outline: (§4)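 Scale 0–100: zero equals no visible effect, 100 complete control, judged by eye relative to controls. Timing: 13 to 15 days in greenhouse post-treatment. Growth stage at spraying: two leaves (paddy) or one to four leaves, 2–18 cm (postemergence).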

morningglory = assay: Test B pre-/postemergence herbicide test; type: in vivo, Ipomoea coccinea
Outline: as §3

wild oat = assay: Test B postemergence herbicide test; type: in vivo, Avena fatua
Outline: as §4

rice [5] = assay: Test B flooded paddy test; type: in vivo, Oryza sativa; details: 1000 g ai/ha, scale 0 to 100 (0 no effect, 100 complete control)
Outline: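 Greenhouse test; postemergence application to plants at 1–4 leaves (2–18 cm); paddy species at 2 leaves; evaluated visually vs controls at 13–15 days; scale 0–100 (100 = complete control).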

blackgrass = assay: Test B postemergence herbicide test; type: in vivo, Alopecurus myosuroides
Outline: as §2

pigweed = assay: Test B pre-/postemergence herbicide test; type: in vivo, Amaranthus retroflexus
Outline: as §1

Surinam grass = assay: Test B pre-/postemergence herbicide test; type: in vivo, Urochloa decumbens
Outline: as §1

[6] = Postemergence, 500 g ai/ha; visual rating after 13 to 15 days, scale 0 (no effect) to 100 (complete control)
[7] = postemergence, 125 g ai/ha; visual rating, scale 0 (no effect) to 100 (complete control)
[8] = preemergence, 125 g ai/ha; 0 to 100 scale, 0 is no effect, 100 is complete control
[9] = Postemergence, 500 g ai/ha, visual rating after 13 to 15 days, scale 0 (no effect) to 100 (complete control)
[10] = Preemergence, 500 g ai/ha, scale 0 to 100
[11] = postemergence, 125 g ai/ha, visual rating, scale 0 (no effect) to 100 (complete control)
[12] = preemergence, 125 g ai/ha, 0 to 100 scale, 0 is no effect, 100 is complete control
[13] = 125 g ai/ha, 0 to 100 scale, 0 is no effect, 100 is complete control
[14] = 500 g ai/ha; visual rating 0-100, 0 no effect, 100 complete control; preemergence
[15] = postemergence, 500 g ai/ha; visual rating, scale 0 (no effect) to 100 (complete control)
[16] = 500 g ai/ha, visual rating 0-100, 0 no effect, 100 complete control, preemergence
[17] = postemergence, 500 g ai/ha, visual rating, scale 0 (no effect) to 100 (complete control)
[18] = 125 g ai/ha; 0 is no effect, 100 is complete control; preemergence
[19] = 125 g ai/ha; visual rating, scale 0 (no effect) to 100 (complete control); postemergence
[20] = 500 g ai/ha; visual rating, 0 = no effect, 100 = complete control; preemergence
[21] = postemergence, 500 g ai/ha; scale 0 to 100, 0 is no effect, 100 is complete control
[22] = 125 g ai/ha, 0 is no effect, 100 is complete control, preemergence
[23] = 125 g ai/ha, visual rating, scale 0 (no effect) to 100 (complete control), postemergence
[24] = 500 g ai/ha, visual rating, 0 = no effect, 100 = complete control, preemergence
[25] = postemergence, 500 g ai/ha, scale 0 to 100, 0 is no effect, 100 is complete control

CCn1nc(C(C)(C)C)cc1C(=O)Nc1cc(C(=O)OC(C)C)c(OC)cc1F [Compound 77]
Plant response rating, Velvetleaf (velvetleaf; [6]): 30
Velvetleaf plant response rating (velvetleaf; [7]): 20
Plant response rating, Velvetleaf (velvetleaf; [8]): 0
Barnyardgrass plant response rating (barnyardgrass [1]; visual rating, 13 to 15 days): 40
Plant response rating, Corn (corn; [9]): 10
Corn plant response rating (corn; [10]): 40
Corn plant response rating (corn; [11]): 10
Plant response rating, Corn (corn; [12]): 0
Plant response rating, Barnyardgrass (barnyardgrass [2]; [9]): 0
Barnyardgrass plant response rating (barnyardgrass [2]; [10]): 70
Barnyardgrass plant response rating (barnyardgrass [2]; [11]): 0
Plant response rating, Barnyardgrass (barnyardgrass [2]; [12]): 0
Sedge, Umbrella plant response rating ([3]; visual rating, 13 to 15 days): 80
Plant response rating, Foxtail, Giant (giant foxtail; [9]): 40
Foxtail, Giant plant response rating (giant foxtail; [10]): 60
Foxtail, Giant plant response rating (giant foxtail; [11]): 0
Plant response rating, Foxtail, Giant (giant foxtail; [12]): 0
Plant response rating, Cocklebur (cocklebur; [9]): 0
Cocklebur plant response rating (cocklebur; [10]): 0
Cocklebur plant response rating (cocklebur; [11]): 0
Plant response rating, Cocklebur (cocklebur; [12]): 0
Plant response rating, Crabgrass, Large (large crabgrass; [9]): 40
Crabgrass, Large plant response rating (large crabgrass; [10]): 80
Crabgrass, Large plant response rating (large crabgrass; [11]): 0
Plant response rating, Crabgrass, Large (large crabgrass; [12]): 0
Ducksalad plant response rating (ducksalad; visual rating, 13 to 15 days): 40
Plant response rating, Lambsquarters (lambsquarters; [6]): 90
Lambsquarters plant response rating (lambsquarters; [7]): 50
Plant response rating, Lambsquarters (lambsquarters; [8]): 60
Plant response rating, Rice (rice [4]; [13]): 0
Plant response rating, Wheat (wheat; [6]): 20
Wheat plant response rating (wheat; [7]): 10
Plant response rating, Morningglory (morningglory; [6]): 70
Morningglory plant response rating (morningglory; [7]): 0
Plant response rating, Morningglory (morningglory; [8]): 0
Plant response rating, Oat, Wild (wild oat; [6]): 40
Oat, Wild plant response rating (wild oat; [7]): 40
Rice plant response rating (rice [5]; visual rating, 13 to 15 days): 70
Plant response rating, Blackgrass (blackgrass; [6]): 30
Blackgrass plant response rating (blackgrass; [7]): 20
Plant response rating, Pigweed (pigweed; [6]): 90
Pigweed plant response rating (pigweed; [7]): 70
Plant response rating, Pigweed (pigweed; [8]): 90
Plant response rating, Surinam Grass (Surinam grass; [6]): 20
Surinam Grass plant response rating (Surinam grass; [7]): 0
Plant response rating, Surinam Grass (Surinam grass; [8]): 0

C=CCN(C)C(=O)c1cccc(NC(=O)c2cc(C(C)(C)C)nn2CC)n1 [Compound 163]
Plant response rating, Velvetleaf (velvetleaf; [14]): 90
Velvetleaf plant response rating (velvetleaf; [7]): 40
Velvetleaf plant response rating (velvetleaf; [15]): 80
Plant response rating, Velvetleaf (velvetleaf; [8]): 70
Barnyardgrass plant response rating (barnyardgrass [1]; visual rating, 13 to 15 days): 70
Plant response rating, Corn (corn; [16]): 40
Corn plant response rating (corn; [11]): 0
Corn plant response rating (corn; [17]): 0
Plant response rating, Corn (corn; [12]): 0
Plant response rating, Barnyardgrass (barnyardgrass [2]; [16]): 90
Barnyardgrass plant response rating (barnyardgrass [2]; [11]): 0
Barnyardgrass plant response rating (barnyardgrass [2]; [17]): 0
Plant response rating, Barnyardgrass (barnyardgrass [2]; [12]): 60
Sedge, Umbrella plant response rating ([3]; visual rating, 13 to 15 days): 70
Plant response rating, Foxtail, Giant (giant foxtail; [16]): 80
Foxtail, Giant plant response rating (giant foxtail; [11]): 0
Foxtail, Giant plant response rating (giant foxtail; [17]): 40
Plant response rating, Foxtail, Giant (giant foxtail; [12]): 20
Plant response rating, Cocklebur (cocklebur; [16]): 70
Cocklebur plant response rating (cocklebur; [11]): 10
Cocklebur plant response rating (cocklebur; [17]): 60
Plant response rating, Cocklebur (cocklebur; [12]): 70
Plant response rating, Crabgrass, Large (large crabgrass; [16]): 90
Crabgrass, Large plant response rating (large crabgrass; [11]): 20
Crabgrass, Large plant response rating (large crabgrass; [17]): 40
Plant response rating, Crabgrass, Large (large crabgrass; [12]): 60
Ducksalad plant response rating (ducksalad; visual rating, 13 to 15 days): 80
Plant response rating, Lambsquarters (lambsquarters; [14]): 100
Lambsquarters plant response rating (lambsquarters; [7]): 50
Lambsquarters plant response rating (lambsquarters; [15]): 80
Plant response rating, Lambsquarters (lambsquarters; [8]): 80
Plant response rating, Rice (rice [4]; 500 g ai/ha, visual rating 0-100, 0 no effect, 100 complete control): 80
Plant response rating, Rice (rice [4]; [13]): 80
Wheat plant response rating (wheat; [15]): 10
Plant response rating, Morningglory (morningglory; [14]): 70
Morningglory plant response rating (morningglory; [7]): 0
Morningglory plant response rating (morningglory; [15]): 0
Plant response rating, Morningglory (morningglory; [8]): 60
Oat, Wild plant response rating (wild oat; [7]): 10
Oat, Wild plant response rating (wild oat; [15]): 30
Rice plant response rating (rice [5]; visual rating, 13 to 15 days): 60
Blackgrass plant response rating (blackgrass; [7]): 10
Blackgrass plant response rating (blackgrass; [15]): 50
Plant response rating, Pigweed (pigweed; [14]): 100
Pigweed plant response rating (pigweed; [7]): 60
Pigweed plant response rating (pigweed; [15]): 80
Plant response rating, Pigweed (pigweed; [8]): 90
Plant response rating, Surinam Grass (Surinam grass; [14]): 70
Surinam Grass plant response rating (Surinam grass; [7]): 0
Surinam Grass plant response rating (Surinam grass; [15]): 40
Plant response rating, Surinam Grass (Surinam grass; [8]): 50

CCc1cn(C(C)(C)C)nc1C(=O)Nc1cccc(C(=O)N(C)C)n1 [Compound 330]
Plant response rating (0 to 100 scale), Velvetleaf (velvetleaf; [18]): 0
Velvetleaf plant response rating (velvetleaf; [19]): 0
Plant response rating, Velvetleaf (velvetleaf; [20]): 0
Velvetleaf plant response rating (velvetleaf; [21]): 10
Barnyardgrass plant response rating (barnyardgrass [1]): 0
Plant response rating (0 to 100 scale), Corn (corn; [22]): 0
Corn plant response rating (corn; [23]): 0
Plant response rating, Corn (corn; [24]): 0
Corn plant response rating (corn; [25]): 0
Plant response rating (0 to 100 scale), Barnyardgrass (barnyardgrass [2]; [22]): 0
Barnyardgrass plant response rating (barnyardgrass [2]; [23]): 0
Plant response rating, Barnyardgrass (barnyardgrass [2]; [24]): 0
Barnyardgrass plant response rating (barnyardgrass [2]; [25]): 0
Sedge, Umbrella plant response rating [3]: 0
Plant response rating (0 to 100 scale), Foxtail, Giant (giant foxtail; [22]): 0
Foxtail, Giant plant response rating (giant foxtail; [23]): 0
Plant response rating, Foxtail, Giant (giant foxtail; [24]): 0
Foxtail, Giant plant response rating (giant foxtail; [25]): 0
Plant response rating (0 to 100 scale), Cocklebur (cocklebur; [22]): 0
Cocklebur plant response rating (cocklebur; [23]): 0
Plant response rating, Cocklebur (cocklebur; [24]): 0
Cocklebur plant response rating (cocklebur; [25]): 0
Plant response rating (0 to 100 scale), Crabgrass, Large (large crabgrass; [22]): 0
Crabgrass, Large plant response rating (large crabgrass; [23]): 0
Plant response rating, Crabgrass, Large (large crabgrass; [24]): 0
Crabgrass, Large plant response rating (large crabgrass; [25]): 0
Ducksalad plant response rating (ducksalad): 0
Plant response rating (0 to 100 scale), Lambsquarters (lambsquarters; [18]): 0
Lambsquarters plant response rating (lambsquarters; [19]): 0
Plant response rating, Lambsquarters (lambsquarters; [20]): 0
Lambsquarters plant response rating (lambsquarters; [21]): 10
Plant response rating (0 to 100 scale), Rice (rice [4]; 125 g ai/ha, 0 is no effect, 100 is complete control): 0
Plant response rating, Rice (rice [4]; 500 g ai/ha, visual rating, 0 = no effect, 100 = complete control): 0
Wheat plant response rating (wheat; [19]): 0
Wheat plant response rating (wheat; [21]): 0
Plant response rating (0 to 100 scale), Morningglory (morningglory; [18]): 0
Morningglory plant response rating (morningglory; [19]): 10
Plant response rating, Morningglory (morningglory; [20]): 0
Morningglory plant response rating (morningglory; [21]): 10
Oat, Wild plant response rating (wild oat; [19]): 0
Oat, Wild plant response rating (wild oat; [21]): 20
Rice plant response rating (rice [5]): 0
Blackgrass plant response rating (blackgrass; [19]): 0
Blackgrass plant response rating (blackgrass; [21]): 0
Plant response rating (0 to 100 scale), Pigweed (pigweed; [18]): 0
Pigweed plant response rating (pigweed; [19]): 0
Plant response rating, Pigweed (pigweed; [20]): 0
Pigweed plant response rating (pigweed; [21]): 0
Plant response rating (0 to 100 scale), Surinam Grass (Surinam grass; [18]): 0
Surinam Grass plant response rating (Surinam grass; [19]): 0
Plant response rating, Surinam Grass (Surinam grass; [20]): 0
Surinam Grass plant response rating (Surinam grass; [21]): 0
